# Data taken from US9387212B2, “Methods for treating Parkinson's disease” (UCB Pharma S.A., priority 2012, dated 2016).
# Legend:
# [1] = system: unilateral 6-OHDA-lesioned rats; test: Video-based behavioural profile analysis (Ethovision) in drug-naive hemi-parkinsonian rats; format: in vivo, rat; conditions: % of the veh-treated rats; for Distance (quantity of movement): Radiprodil 3 mg/kg po, Tozadenant 30 mg/kg po, LD25 ip, LD/BZ 16/4 mg/kg ip; for Adequate body position / Adequate trajectory (gyration radius) / Contra turns (ability to shift direction) / Ipis turns (ability to shift direction): same doses
# Experimental: (§1) The specific behavioural profile of unilateral 6-OHDA-lesioned rats was recorded via 8 cameras connected to a video acquisition system. Rats under treatment were placed freely in a small environment (rotometers, 25×22 cm) or in large open-field (50×40 cm) and the behaviour was video-recorded for 55 minutes (total of 3300 sec). The placement in the small (rotometers) or large (open-field) environment may depend on the test. The rats were filmed from below as described in the section which concerns the rotational activity.
# (§2) After the in-live data recordings, the videos are subsequently analyzed by the Ethovision program from (Noldus, version 9.0). The animal and its movements and displacements were defined according to three points (nose, center and tail). The movements, position of the body and, the space occupation, were set-up according to the filter analysis defined with specific criteria and thresholds in the program. Various behavioural parameters were analyzed and only the relevant, i.e. the non-correlated ones, were kept for the final behavioural description.
# (§3) The analysis of the other types of behaviours was done with specific parameters selected in the video analysis program (Ethovision 9.0) in order to describe as best as possible the behaviour observed visually and being able to quantify it. The parameters “Distance”, “Counter Clockwise rotations”, “Clockwise rotations”, “Streched” were extracted from the analysis. Additional parameter, the “gyration radius” is calculated from the raw data obtained by the system. • Distance (=“distance”): the total distance moved by the animal (cm) • Counter clockwise (=“ipsilateral turns”): count of the number of 360° turns of ipsilateral rotations in the same sense than that of the lesion. • Clockwise (=“contralateral turns”): count of the number of 360° turns of contralateral rotations in the opposite sense to that of the lesion. • Stretched: (=“adequate body position”): time spent in a position wherein the rat stands on its four paws without any bent position of the trunk. In the program this is the parameter “body elongation” that is used to discriminate the intensity and frequency of the adequate body position. The threshold is fixed at 70%. • Gyration Radius (=“adequate trajectory”): for a specific time interval, average distance between the animal position and its average position within this specific time interval. This parameter reflect the ability of the rats to use the entire space of the arena and is measured in centimeters. Statistical Analysis
# Specific behavioural analysis: The five behaviours kept for the thorough behavioural analysis (i.e. distance, contra turns, ipsi turns, adequate body position and adequate trajectory) were analyzed with parametric statistic however if variance homogeneity was not respected for the data (Bartlett's test for equal variances) these latter were analyzed with non-parametric statistics (Kruskal-Wallis). In both case, one-way ANOVA was performed to discriminate the effect of the various treatments on each independent behaviours. Significant differences between means were determined by Tukey post hoc test or Dunn's Multiple Comparison test with p<0.05.
# The effects of the oral co-administration of Radiprodil (3 mg/kg, po) with Tozadenant (30 mg/kg, po) on the rat behaviour are compared to the testing of: • 1) these compounds separately • 2) a partially active dose of L-Dopa (25 mg/kg, ip) • 3) a fully active dose of L-Dopa/benserazide (16/4 mg/kg, ip).
# The behavioural profile was analyzed in detail with an automated behavioural analysis system based on video recordings (see methods section for the description). In addition, classical measurements (rotometers and actometers) of the behaviour are also used to assess quantity of movements. […]
# [2] = system: unilateral 6-OHDA-lesioned rat model of Parkinson's disease; test: General activity (distance travelled, rearing counts) in actometers; format: in vivo; conditions: Radiprodil 3 mg/kg po, Tozadenant 30 mg/kg po; three-way mixed ANOVA, Tukey p<0.05
# Experimental: Subjects: Males Sprague-Dawley rats (Janvier, France), weighing 250-275 g at the time of surgery and 400-450 g at the time of drug testing are used.
# On the day of surgery, one week after arrival, rats received unilateral 6-OHDA injection into the right medial forebrain bundle. Each rat was administered with Imipramine HCl (Sigma) 15 minutes before surgery to protect norepinephrinergic (NE) neurons. Rats were anesthetized with Ketamine (Ceva, 75 mg/kg) and Xylazine (Bayer, 10 mg/kg) and placed in stereotaxic frame (David Kopf Instrument). […] Each rat was monitored and handled regularly for 3 weeks to ensure full recovery and acclimation to the experimenters and environment. […]
# General activity was recorded within large open-field measuring horizontal and vertical movements and connected to PCs. […] Locomotion was detected and measured by 16 infrared light-beam sensors located on each side of the enclosure at heights of 3 cm. […] Activity counts were recorded by a personal computer. […]
# The level of general activity (distance and rearing) measurement in actometers was assessed by three-way mixed ANOVA with the A2A antagonist (2 levels) and the NR2B antagonist (2 levels) as between-group factors and the time as within-subjects factor (6 or 24 levels). […]
# [3] = system: hemi-parkinsonian L-Dopa-primed rats; test: Behavioural profile analysis in L-Dopa-primed, fully dyskinetic hemi-parkinsonian rats; format: in vivo, rat; conditions: Radiprodil 3 mg/kg, Tozadenant 30 mg/kg; for Distance, in comparison to the same rats under L-Dopa/benserazide: arrow in cell: increase, decrease or no change vs LD/BZ
# Experimental: as §1, §2
# The analysis of the Abnormal Involuntary movement (“AIMs”) was performed with a specific parameter defined in Ethovision 9.0. The parameter “body elongation” was used to discriminate both the intensity and the frequency of dyskinetic (i.e. dystonic) position of the rat.
# as §3
# Consecutively to that chronic L-Dopa/benzerazide treatment, they show a very high level of contralateral rotations and AIMs at the end of this chronic treatment when tested in the open-field. […] This absence of cross-sensitization on the level of contralateral rotations and AIMs result was entirely unexpected.
# PD patients = conditions: Mizuno et al. 2010; Nutt et al., 2008; cited from earlier work
# [4] = system: unilateral 6-OHDA-lesioned rats; test: Chronic add-on treatment to an active dose of L-Dopa/benserazide (10 acquisition sessions; rotometers and open-field); format: in vivo, rat; conditions: plus L-Dopa 14 mg/kg/benserazide 3.5 mg/kg; in comparison to Tozadenant-treated rats (FIG. 16)
# Experimental: Rotational behaviour was recorded using a home-made computerized system. Rats were fixed in a harness, linked to mechanical sensors that were directly connected to a PC. Each 360° clock-wise or counter clock-wise turn was automatically recorded for up to 240 minutes at the maximum. Throughout the experiments, rats were allocated to individual test cages. Each of 8 clear acrylic chambers (50×40 cm), placed on a level, clear glass bottom, held by a robust frame, could be subdivided into 4 individual square test cages of 25×22 cm. A removable acrylic plate serves as a lid. […] Video sequences were recorded on hard disk for storage and subsequently transferred to PC for analysis and conservation. […]
# Data of the acquisition session under treatment with A2A and/or NR2B antagonist plus L-Dopa/benserazide were analyzed by two-way repeated measures ANOVA with chronic session as within-subjects factor (10 session levels). The reliabilities of the between-mean differences were assessed with planned contrasts using an F statistic. […]
# Ten acquisition sessions (once/day) of L-Dopa (14 mg/kg)/benserazide (3.5 mg/kg) given in co-administration to veh, Tozadenant, Radiprodil or the combination of both compounds increase progressively the level of L-Dopa-induced contralateral rotations when measured in rotometers (FIG. 15). […]
Structure (SMILES),Distance (quantity of movement) ([1]; 0-20′),Adequate body position ([1]; 0-20′),Adequate trajectory (gyration radius) ([1]; 0-20′),Contra turns (ability to shift direction) ([1]; 0-20′),Ipis turns (ability to shift direction) ([1]; 0-20′),Distance (quantity of movement) ([1]; 30-50′),Adequate body position ([1]; 30-50′),Adequate trajectory (gyration radius) ([1]; 30-50′),Contra turns (ability to shift direction) ([1]; 30-50′),Ipis turns (ability to shift direction) ([1]; 30-50′),"distance (FIG. 1, right graph) [2]","Adequate body position, in comparison to the same rats under L-Dopa/benserazide ([3]; arrow gives direction vs LD/BZ) [% ↑]","Contra turns, in comparison to the same rats under L-Dopa/benserazide ([3]; arrow gives direction vs LD/BZ) [% ↓]","No AIMs, in comparison to the same rats under L-Dopa/benserazide ([3]; arrow gives direction vs LD/BZ) [% ↑]","Severe AIMs, in comparison to the same rats under L-Dopa/benserazide ([3]; arrow gives direction vs LD/BZ) [% ↓]","Distance, in comparison to the same rats under L-Dopa/benserazide [3] [% ↓]",efficacy in clinical trials in PD patients (PD patients),"Adequate trajectory, in comparison to the same rats under L-Dopa/benserazide ([3]; arrow gives direction vs LD/BZ) [% ↑]","level of severe AIMs in larger open-field, chronic add-on [4]"
"N[C@@H](Cc1ccc(O)c(O)c1)C(=O)O [LD25, L-dihydroxyphenylalanine]",++ (300-500%),+ (200-300%),+++ (>500%),+++ (>500%),++ (300-500%),+++ (>500%),++ (300-500%),+++ (>500%),+++ (>500%),++ (300-500%),,,,,,,,,
"COc1ccc(N2CCOCC2)c2sc(NC(=O)N3CCC(C)(O)CC3)nc12 [Tozadenant, 4-hydroxy-4-methyl-piperidine-1-carboxylic acid (4-methoxy-7-morpholin-4-yl-benzothiazol-2-yl)-amide]",+ (200-300%),+ (200-300%),+++ (>500%),+ (200-300%),+ (200-300%),++ (300-500%),++ (300-500%),+++ (>500%),++ (300-500%),++ (300-500%),Significant effect,4151,11,948,12,56,,,
CCn1c(=O)c2c(nc(/C=C/c3ccc(OC)c(OC)c3)n2C)n(CC)c1=O [KW-6002],,,,,,,,,,,,,,,,,did not show the expected efficacy,,
C[C@@H]([C@@H](O)c1ccc(O)cc1)N1CCC(O)(c2ccccc2)CC1 [Traxoprodil],,,,,,,,,,,,,,,,,did not show the expected efficacy,,
O=C(Nc1ccc2[nH]c(=O)oc2c1)C(=O)N1CCC(Cc2ccc(F)cc2)CC1 [Radiprodil],++ (300-500%),++ (300-500%),++ (300-500%),+ (200-300%),+ (200-300%),+ (200-300%),++ (300-500%),++ (300-500%),+ (200-300%),+ (200-300%),Significant effect,5236,16,1035,7,69,,140,level of severe AIMs is reduced
